The text below walks through data of patent US11274098B2, “Tricyclic compounds for use in treatment of proliferative disorders” (ARGONAUT THERAPEUTICS LIMITED, priority 2017, dated 2022).

The assay concerns the target human PRMT5/MEP50 (Homo sapiens (Human), UniProt O14744). The experiment in a line: PRMT5 chemiluminescent assay. In kind it is biochemical. Particulars: human PRMT5/MEP50 expressed in HEK293 cells; biotinylated histone peptide substrate; 60 min reaction; chemiluminescent readout. The protocol: A PRMT5 chemiluminescent assay was used to measure the […] activity of PRMT5. Biotinylated histone peptides were synthesized and attached to 384-well plates. Compound serial dilutions were performed and added to the assay plate. Histone H4 monomethyl R^3 antibody was obtained from Abcam. A master mix for each well was prepared and human PRMT5/MEP50 (expressed in HEK293 cells) diluted in assay buffer to a concentration of 5 ng/μL. The reaction was incubated and slowly rotated for 60 minutes at the point of PRMT5/MEP50 addition. The supernatant from the wells was removed and blocking buffer was added to each well and rotated for 10 minutes. The primary antibody was diluted and added to every well for 60 minutes, before it was removed and the wells washed. The horse radish peroxidase (HRP)-coupled secondary antibody was diluted and added to each well with an incubation time of 30 minutes. The HRP chemiluminescent substrate was added to every well. The plate was read on a Flourstar Omega BMG Labtech instrument (Ortenberg, Germany) and the analysis of IC50 was performed using the Flourstar Omega BMG Labtech software.

human PRMT5/MEP50, sequence (O14744 whole entry): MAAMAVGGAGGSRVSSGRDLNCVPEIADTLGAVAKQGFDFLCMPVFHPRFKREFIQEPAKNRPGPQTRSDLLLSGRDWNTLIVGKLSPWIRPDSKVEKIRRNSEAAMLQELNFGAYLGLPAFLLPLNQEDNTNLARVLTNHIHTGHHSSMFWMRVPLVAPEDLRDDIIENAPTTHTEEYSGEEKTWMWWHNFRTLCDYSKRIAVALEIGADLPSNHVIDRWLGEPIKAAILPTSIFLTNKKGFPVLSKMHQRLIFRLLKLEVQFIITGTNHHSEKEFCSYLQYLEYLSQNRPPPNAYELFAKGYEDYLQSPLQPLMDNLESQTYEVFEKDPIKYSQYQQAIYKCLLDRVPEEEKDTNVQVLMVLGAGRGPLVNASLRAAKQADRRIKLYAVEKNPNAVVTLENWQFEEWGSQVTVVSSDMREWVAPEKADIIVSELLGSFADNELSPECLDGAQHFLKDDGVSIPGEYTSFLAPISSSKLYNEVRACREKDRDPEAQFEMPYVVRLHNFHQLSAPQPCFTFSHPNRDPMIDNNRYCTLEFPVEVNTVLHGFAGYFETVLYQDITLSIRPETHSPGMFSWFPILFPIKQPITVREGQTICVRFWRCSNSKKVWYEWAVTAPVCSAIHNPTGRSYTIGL
human PRMT5/MEP50, sequence (Q9BQA1 whole entry partner): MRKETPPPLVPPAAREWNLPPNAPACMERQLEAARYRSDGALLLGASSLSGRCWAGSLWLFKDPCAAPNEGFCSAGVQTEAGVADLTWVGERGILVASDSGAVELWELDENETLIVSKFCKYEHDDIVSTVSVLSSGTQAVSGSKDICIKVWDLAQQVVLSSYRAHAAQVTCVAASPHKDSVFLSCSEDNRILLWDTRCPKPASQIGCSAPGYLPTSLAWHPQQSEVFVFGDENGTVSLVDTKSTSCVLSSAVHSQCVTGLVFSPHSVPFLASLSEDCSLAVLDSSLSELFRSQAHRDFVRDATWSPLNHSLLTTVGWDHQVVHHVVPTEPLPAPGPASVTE

Usually IC50 stands for the concentration at which inhibition is half-maximal. Read a high IC50 as lower potency. `CN1CCN(c2cc(C(=O)NCC(O)CN3CCc4[nH]c5ccccc5c4C3)cc(NC3CCC3)n2)CC1` (stereo not drawn) [Example 2, 2-(cyclobutylamino)-N-(2-hydroxy-3-{1H,2H,3H,4H,5H-pyrido[4,3-b]indol-2-yl}propyl)-6-(4-methylpiperazin-1-yl)pyridine-4-carboxamide] gave an IC50 of 771 nM.

`CC(=O)N1CCC(Nc2cc(C(=O)NCC(O)CN3CCc4[nH]c5ccccc5c4C3)ncn2)CC1` (stereo not drawn) [Example 4, 6-[(1-acetylpiperidin-4-yl)amino]-N-(2-hydroxy-3-{1H,2H,3H,4H,5H-pyrido[4,3-b]indol-2-yl}propyl)pyrimidine-4-carboxamide] showed an IC50 of 542 nM.

In turn, `CN1CCN(c2nc(NC3CCC3)cc(C(=O)NCC(O)CN3CCc4c(c5ccccc5n4C)C3)n2)CC1` (stereo not drawn) [Example 6, 6-(cyclobutylamino)-N-(2-hydroxy-3-{5-methyl-1H,2H,3H,4H,5H-pyrido[4,3-b]indol-2-yl}propyl)-2-(4-methylpiperazin-1-yl)pyrimidine-4-carboxamide] returned an IC50 of 108 nM.

For the compound `CN1CCN(c2cc(C(=O)NCC(O)CN3CCc4c(c5ccccc5n4C)C3)cc(NC3CCC3)n2)CC1` (stereo not drawn) [Example 7, 2-(cyclobutylamino)-N-(2-hydroxy-3-{5-methyl-1H,2H,3H,4H,5H-pyrido[4,3-b]indol-2-yl}propyl)-6-(4-methylpiperazin-1-yl)pyridine-4-carboxamide], the IC50 turned out to be 322 nM.

The compound `CN1CCN(c2nc(NC3CCC3)cc(C(=O)NCC(O)CN3CCc4c([nH]c5ccccc45)C3)n2)CC1` (stereo not drawn) [Example 9, 6-(cyclobutylamino)-N-(2-hydroxy-3-{1H,2H,3H,4H,9H-pyrido[3,4-b]indol-2-yl}propyl)-2-(4-methylpiperazin-1-yl)pyrimidine-4-carboxamide] had an IC50 of 148 nM.

`CN1CCN(c2cc(C(=O)NCC(O)CN3CCc4c([nH]c5ccccc45)C3)cc(NC3CCC3)n2)CC1` (stereo not drawn) [Example 10, 2-(cyclobutylamino)-N-(2-hydroxy-3-{1H,2H,3H,4H,9H-pyrido[3,4-b]indol-2-yl}propyl)-6-(4-methylpiperazin-1-yl)pyridine-4-carboxamide] gave an IC50 of 67 nM.

In turn, `O=C(NCC(O)CN1CCc2c([nH]c3ccccc23)C1)c1cc(NC2CCC2)ncn1` (stereo not drawn) [Example 11, 6-(Cyclobutylamino)-N-(2-hydroxy-3-{1H,2H,3H,4H,9H-pyrido[3,4-b]indol-2-yl}propyl)pyrimidine-4-carboxamide] returned an IC50 of 459 nM.

The compound `CC(=O)N1CCC(Nc2cc(C(=O)NCC(O)CN3CCc4c([nH]c5ccccc45)C3)ncn2)CC1` (stereo not drawn) [Example 12, 6-[(1-acetylpiperidin-4-yl)amino]-N-(2-hydroxy-3-{1H,2H,3H,4H,9H-pyrido[3,4-b]indol-2-yl}propyl)pyrimidine-4-carboxamide] returned an IC50 of 86 nM.

As for `O=C(NCC(O)CN1CCc2c([nH]c3ccccc23)C1)c1ccc(C(=O)N2CCOCC2)cc1` (stereo not drawn) [Example 13, N-(2-hydroxy-3-{1H,2H,3H,4H,9H-pyrido[3,4-b]indol-2-yl}propyl)-4-[(morpholin-4-yl)carbonyl]benzamide], the IC50 is 2040 nM.

As for `O=C(NCC(O)CN1CCc2c([nH]c3ccccc23)C1)c1ccc(C(=O)N2C3CCC2COC3)cc1` (stereo not drawn) [Example 14, N-(2-hydroxy-3-{1H,2H,3H,4H,9H-pyrido[3,4-b]indol-2-yl}propyl)-4-({3-oxa-8-azabicyclo[3.2.1]octan-8-yl}carbonyl)benzamide], inhibition was half-maximal at 1630 nM (IC50).

The compound `CN1CCN(c2nc(NC3CCC3)cc(C(=O)NCC(O)CN3CCc4c(n(C)c5ccccc45)C3)n2)CC1` (stereo not drawn) [Example 15, 6-(cyclobutylamino)-N-(2-hydroxy-3-{9-methyl-1H,2H,3H,4H,9H-pyrido[3,4-b]indol-2-yl}propyl)-2-(4-methylpiperazin-1-yl)pyrimidine-4-carboxamide] gave an IC50 of 477 nM.

In the case of `CN1CCN(c2cc(C(=O)NCC(O)CN3CCc4c(n(C)c5ccccc45)C3)cc(NC3CCC3)n2)CC1` (stereo not drawn) [Example 16, 2-(cyclobutylamino)-N-(2-hydroxy-3-{9-methyl-1H,2H,3H,4H,9H-pyrido[3,4-b]indol-2-yl}propyl)-6-(4-methylpiperazin-1-yl)pyridine-4-carboxamide], the IC50 is 286 nM.

Turning to `Cn1c2c(c3ccccc31)CCN(CC(O)CNC(=O)c1cc(NC3CCC3)ncn1)C2` (stereo not drawn) [Example 17, 6-(cyclobutylamino)-N-(2-hydroxy-3-{9-methyl-1H,2H,3H,4H,9H-pyrido[3,4-b]indol-2-yl}propyl)pyrimidine-4-carboxamide], the IC50 turned out to be 8040 nM.

For `CC(=O)N1CCC(Nc2cc(C(=O)NCC(O)CN3CCc4c(n(C)c5ccccc45)C3)ncn2)CC1` (stereo not drawn) [Example 18, 6-[(1-acetylpiperidin-4-yl)amino]-N-(2-hydroxy-3-{9-methyl-1H,2H,3H,4H,9H-pyrido[3,4-b]indol-2-yl}propyl)pyrimidine-4-carboxamide], the IC50 was found to be 2050 nM.

`Cn1c2c(c3ccccc31)CCN(CC(O)CNC(=O)c1ccc(C(=O)N3C4CCC3COC4)cc1)C2` (stereo not drawn) [Example 19, N-(2-hydroxy-3-{9-methyl-1H,2H,3H,4H,9H-pyrido[3,4-b]indol-2-yl}propyl)-4-({3-oxa-8-azabicyclo[3.2.1]octan-8-yl}carbonyl)benzamide] came in with an IC50 of 26900 nM.

Compound `O=C(OCC(O)CN1CCc2c([nH]c3ccccc23)C1)N1CCC(c2ccccc2)C1` (stereo not drawn) [Example 20, 2-hydroxy-3-(1,3,4,9-tetrahydro-2H-pyrido[3,4-b]indol-2-yl)propyl 3-phenylpyrrolidine-1-carboxylate] returned an IC50 of 10500 nM.

For the compound `O=C(OCC(O)CN1CCc2c([nH]c3ccccc23)C1)N1CCc2ccccc2C1` (stereo not drawn) [Example 21, 2-Hydroxy-3-(1,3,4,9-tetrahydro-2H-pyrido[3,4-b]indol-2-yl)propyl 3,4-dihydroisoquinoline-2(1H)-carboxylate], the IC50 was found to be 6190 nM.

Regarding `O=C(NCC(O)CN1CCc2c([nH]c3ccccc23)C1)N1CCc2ccccc2C1` (stereo not drawn) [Example 22, N-(2-hydroxy-3-(1,3,4,9-tetrahydro-2H-pyrido[3,4-b]indol-2-yl)propyl)-3,4-dihydroisoquinoline-2(1H)-carboxamide], 21000 nM corresponded to half-maximal inhibition (IC50).

`O=C(NCC(O)CN1CCc2c([nH]c3ccccc23)C1)N1CCC(c2ccccc2)C1` (stereo not drawn) [Example 23, N-(2-hydroxy-3-(1,3,4,9-tetrahydro-2H-pyrido[3,4-b]indol-2-yl)propyl)-3-phenyl pyrrolidine-1-carboxamide] displayed a half-inhibitory concentration (IC50) of 75700 nM.

As to `O=C(NCC(O)CN1CCc2c([nH]c3ccccc23)C1)N1CCCC(c2ccccc2)C1` (stereo not drawn) [Example 24, N-(2-hydroxy-3-(1,3,4,9-tetrahydro-2H-pyrido[3,4-b]indol-2-yl)propyl)-3-phenylpiperidine-1-carboxamide], half-maximal inhibition (IC50) was put at 53700 nM.

As for `CC(=O)N1CCC(Nc2cc(C(=O)NCCCN3CCc4c([nH]c5ccccc45)C3)ncn2)CC1` [Example 25, 6-((1-acetylpiperidin-4-yl)amino)-N-(3-(1,3,4,9-tetrahydro-2H-pyrido[3,4-b]indol-2-yl)propyl)pyrimidine-4-carboxamide], the IC50 was found to be 99 nM.

`CC(=O)N1CCC(Nc2cc(C(=O)NC[C@H](O)CN3CCc4c([nH]c5ccccc45)C3)ncn2)CC1` [Example 26, (S)-6-((1-acetylpiperidin-4-yl)amino)-N-(2-hydroxy-3-(1,3,4,9-tetrahydro-2H-pyrido [3,4-b]indol-2-yl)propyl)pyrimidine-4-carboxamide] gave an IC50 of 10 nM.

As to `CC(=O)N1CCC(Nc2cc(C(=O)NC[C@@H](O)CN3CCc4c([nH]c5ccccc45)C3)ncn2)CC1` [Example 27, (R)-6-((1-acetylpiperidin-4-yl)amino)-N-(2-hydroxy-3-(1,3,4,9-tetrahydro-2H-pyrido [3,4-b]indol-2-yl)propyl)pyrimidine-4-carboxamide], the IC50 came out at 158 nM.

In the case of `CC(=O)N1CCC(Nc2cc(C(=O)NCC(O)CN3CCn4c(cc5ccccc54)C3)ncn2)CC1` (stereo not drawn) [Example 28, 6-((1-acetylpiperidin-4-yl)amino)-N-(3-(3,4-dihydropyrazino[1,2-a]indol-2(1H)-yl)-2-hydroxypropyl)pyrimidine-4-carboxamide], it took 45 nM to reach half-maximal inhibition (IC50).
